According to patent publication EP2929785A1, “A PLA inhibitor for inhibition of fat absorption” (PAT GmbH, priority 2014, dated 2015):

Experiments:
HepG2 cells [1] = experiment: Fatty acid ([3H]oleate:albumin) influx in HepG2 cells; type: cell-based, human
iPLA2ß-/- hepatocytes = experiment: Fatty acid influx in primary hepatocytes from iPLA2ß-/- mice; type: cell-based; conditions: UDCA-LPE pretreatment (Fig. 4B)
[2] = molecular target: T1, fatty acid uptake complex in the DRM-PM consisting of CD36, FABPPM, caveolin1, and iPLA2ß (Homo sapiens, UniProt O60733); experiment: Disassembly of the fatty acid uptake complex in DRM-PM of HepG2 cells (immunoprecipitation, western blotting); type: cell-based
T1 construct: western blotting of DRM-PM isolated from these cells; endogenous in cells; host or cells: HepG2
T1 sequence (O60733 1-806): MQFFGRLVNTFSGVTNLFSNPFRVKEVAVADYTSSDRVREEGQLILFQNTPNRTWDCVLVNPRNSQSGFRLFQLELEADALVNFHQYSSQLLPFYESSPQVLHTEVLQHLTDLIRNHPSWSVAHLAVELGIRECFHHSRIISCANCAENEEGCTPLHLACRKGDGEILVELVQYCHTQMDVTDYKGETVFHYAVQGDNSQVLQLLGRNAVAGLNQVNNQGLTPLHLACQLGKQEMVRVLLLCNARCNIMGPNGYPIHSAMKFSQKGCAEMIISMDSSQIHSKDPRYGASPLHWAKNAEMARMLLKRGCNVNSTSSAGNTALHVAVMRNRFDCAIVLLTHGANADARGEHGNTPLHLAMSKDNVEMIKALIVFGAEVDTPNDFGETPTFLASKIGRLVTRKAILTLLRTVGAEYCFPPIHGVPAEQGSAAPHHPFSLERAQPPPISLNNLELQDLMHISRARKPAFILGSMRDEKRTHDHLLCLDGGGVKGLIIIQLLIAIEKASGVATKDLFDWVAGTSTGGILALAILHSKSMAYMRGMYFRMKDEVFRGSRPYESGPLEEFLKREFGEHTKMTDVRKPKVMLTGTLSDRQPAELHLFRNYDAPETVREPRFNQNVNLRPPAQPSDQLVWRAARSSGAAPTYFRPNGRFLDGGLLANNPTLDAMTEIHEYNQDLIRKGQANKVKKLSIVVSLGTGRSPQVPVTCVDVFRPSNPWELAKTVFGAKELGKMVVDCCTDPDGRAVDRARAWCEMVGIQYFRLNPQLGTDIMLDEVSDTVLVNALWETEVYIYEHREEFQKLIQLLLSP
Protocol: Detergent-resistant PM (DRM-PM) and non-DRM-PM fractions were isolated and characterized as previously described (Pohl J et al. Mol Biol Cell. 2005; 16: 24-31). Subcellular membrane fractions were prepared by centrifugation at 100,000 g for 1 h to obtain homogenate pellets. Nuclear extracts were obtained by centrifugation at 500 g for 5 min. Pellets were washed and resuspended in a buffer solution containing […] (pH 7.4), 100 mM NaCl, and 0.1 mM EDTA (Marzluff WF et al. Meth Cell Biol. 1987; 317-331)). The protein concentration was determined by the Bradford method (Bio- Rad, Munich, Germany).
Immunoblotting was performed according to a standard protocol as set out in Sun Q., et al. Biol Med (Maywood). 2012; 237: 178-185. […] To estimate the protein concentration a semi-quantitative densitometry was performed as described in Sun Q et al. (loc cit.). […]

cytosolic LPC = experiment: Cytosolic LPC concentration in HepG2 cells; type: cell-based, human
Protocol: LPC concentration in cytosolic supernatants was measured as previously described (Kishimoto T et al. Clin. Biochem. 2002; 35: 411-416).

p-JNK1 = experiment: Cytosolic p-JNK1 levels in HepG2 cells (western blotting); type: cell-based, human
Protocol: Immunoblotting was performed according to a standard protocol as set out in Sun Q., et al. Biol Med (Maywood). 2012; 237: 178-185. The following primary antibodies to human proteins were used: mouse a-phosphorylated c-Jun N-terminal kinase 1 (p-JNK1) (88.20; Santa Cruz Biotechnology Inc., Heidelberg, Germany) at 1:500; mouse a-CD36 (1.BB.344; Santa Cruz Biotechnology Inc.) at 1:200; rabbit a-iPLA2ß (558-588; Abcam) at 1:500; mouse a-FABPPM (331-430; Abnova, Heidelberg, Germany) at 1:1,000; mouse a-FATP4 (1F4-1B10; Abnova) at 1:500; mouse a-caveolin-1 (C20B; Santa Cruz Biotechnology Inc.) at 1:500; mouse a-flotilin1 (F-3; Santa Cruz Biotechnology Inc.) at 1:500; and mouse a-ß-actin (AC-15; Sigma) at 1:100,000. Anti-mouse or -rabbit HRP (96910 and 107487, respectively; Dianova, Hamburg, Germany) were used at 1:10,000 dilution as secondary antibodies. To estimate the protein concentration a semi-quantitative densitometry was performed as described in Sun Q et al. (loc cit.).

HepG2 cells [3] = experiment: Cellular steatohepatitis model in HepG2 cells; type: cell-based, human; conditions: UDCA-LPE 100 µM, 1 h, before or after 3 h 400 µM oleate:albumin (4:1)
Protocol: To induce steatosis, HepG2 cells were incubated with 400 µM oleate:albumin (4:1) for 3 h. The effect of UDCA-LPE (100 µM; 1 h) relative to PBS (control) was examined by pretreating cells before or after the 3- h fatty acid feeding period (with continuous fatty acid feeding thereafter). Fatty acid loading was examined by staining cells with Oil Red (Sigma) and by immunodetection of triglycerides (ab65336; Abcam, Cambridge, UK). In addition, the release of lactate dehydrogenase (LDH) (11644793001; Roche, Mannheim, Germany) was determined as a measure of apoptosis.

[4] = molecular target: T2, four-protein fatty acid uptake complex within the DRM-domain of CaCo2 plasma membranes (Homo sapiens, UniProt O60733); experiment: Disintegration of the fatty acid uptake complex in CaCo2 cells; type: cell-based
T2 construct: the DRM domains of the plasma membrane were isolated from native CaCo2 cells; endogenous in cells; host or cells: CaCo2
T2 sequence (O60733 1-806): T1 sequence (O60733 1-806)
Protocol: All other experiments were assessed with CaCo2 cells as described in Ex. 1, mutatis mutandis.

Q: With “ursodeoxycholatelysophosphatidylethanolamide [UDCA-LPE]” as the substance, how does the IC50 (HepG2 cells [1]; 1-h treatment with increasing concentrations (Fig. 2A), read-out: inhibition of fatty acid influx (IC50)) read?
A: 47 µM

Q: What about the “time until fatty acid influx reached a minimum” value (HepG2 cells [1]; UDCA-LPE 100 µM (Fig. 1A)) of the same substance?
A: 60 min

Q: And the “time after withdrawal until original fatty acid influx rate was restored” value (HepG2 cells [1]; after UDCA-LPE withdrawal (Fig. 1A))?
A: 6 h

Q: And the Km (HepG2 cells [1]; pretreatment UDCA-LPE 100 µM, 1 h or MAFP 150 µM, 1 h)?
A: 0.251 µM

Q: What about the “Vmax of [3H]oleate influx” value (HepG2 cells [1]; pretreatment UDCA-LPE 100 µM, 1 h or MAFP 150 µM, 1 h, control 61.80) of the same substance?
A: 28.43 nmol/mg protein/min

Q: What about the fatty acid influx (iPLA2ß-/- hepatocytes) of the same substance?
A: not

Q: What about the “incubation time at which the fatty acid uptake complex began to disassemble” value ([2]; 50 µM) of the same substance?
A: ≥ 30 min

Q: And the “concentration at which the fatty acid uptake complex began to disassemble” value ([2]; 30 min of incubation)?
A: ≥ 50 µM

Q: And the IC50 (cytosolic LPC; 30 min treatment (Fig. 7), read-out: suppression of cytosolic LPC (IC50))?
A: 47 µM

Q: And the “cytosolic LPC” value (cytosolic LPC; UDCA-LPE 50 µM (Fig. 6), before treatment 8.0 ± 1.3)?
A: 3.5 ± 0.2 µmol/mg protein

Q: And the “pretreatment time achieving the threshold LPC concentration at which p-JNK1 began to decrease” value (p-JNK1; > 50 µM UDCA-LPE)?
A: > 30 min

Q: What about the “pretreatment concentration achieving the threshold LPC concentration at which p-JNK1 began to decrease” value (p-JNK1; for > 30 min) of the same substance?
A: > 50 µM

Q: What about the “fatty acid-induced inflammation (LDH release)” value (HepG2 cells [3]) of the same substance?
A: prevented or reversed

Q: What about the steatosis (HepG2 cells [3]) of the same substance?
A: prevented or reversed

Q: What about the “minimal concentration for disintegration of the complex” value [4] of the same substance?
A: 50 µM

Q: And the “exposure time for disintegration of the complex” value ([4]; 50 µM)?
A: 30 min
